Data set [1] deals with T1, 5-hydroxytryptamine receptor 1A (Homo sapiens, UniProt P08908).
T1 sequence (P08908 whole entry): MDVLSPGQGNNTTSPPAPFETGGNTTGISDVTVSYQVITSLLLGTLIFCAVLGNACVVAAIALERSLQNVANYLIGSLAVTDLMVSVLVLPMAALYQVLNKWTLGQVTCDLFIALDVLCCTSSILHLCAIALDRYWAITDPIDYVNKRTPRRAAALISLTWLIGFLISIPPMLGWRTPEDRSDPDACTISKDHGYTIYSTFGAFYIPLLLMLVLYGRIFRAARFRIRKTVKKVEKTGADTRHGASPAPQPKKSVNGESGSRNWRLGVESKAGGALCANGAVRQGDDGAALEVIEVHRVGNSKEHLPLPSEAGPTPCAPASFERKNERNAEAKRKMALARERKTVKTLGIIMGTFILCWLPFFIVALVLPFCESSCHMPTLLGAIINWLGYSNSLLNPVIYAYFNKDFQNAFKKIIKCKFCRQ

Data set [2] can be described thus: in vitro. Conditions: rat, liver microsomes.
Description: Half life in rat liver microsomes at 1 uM after 20 mins
A short description of data set [3]: in vitro. The note with it: human, liver microsomes. (In general: Microsomes from liver hold many membrane-bound enzymes, among them those of drug oxidation.)
Description: Half life in human liver microsomes at 1 uM after 20 mins
Data set [4] concerns the target T1, 5-hydroxytryptamine receptor 1A. The experiment in a line: biochemical.
Description: Displacement of [3H]8-OH-DPAT from human 5HT1A receptor expressed in CHO cells
A short description of data set [5]: Clearance in Sprague-Dawley rat at 1 mg/kg, iv administered as single dose by LC/MS/MS analysis. The class given is ADME, organism-based. On the set-up: dose 1 mg/kg, route intravenous. Conditions: in vivo.
Data set [6] can be described thus: Volume of distribution at steady state in Sprague-Dawley rat at 1 mg/kg, iv administered as single dose by LC/MS/MS analysis. The format is ADME, organism-based. On the set-up: dose 1 mg/kg, route intravenous. The note with it: in vivo, read-out: Vdss.
A short description of data set [7]: Cmax in Sprague-Dawley rat at 3 mg/kg, po administered as single dose by LC/MS/MS analysis. The format is ADME, organism-based. Also on record: dose 3 mg/kg, route oral. Conditions: in vivo.
Data set [8] is described as follows: Tmax in Sprague-Dawley rat at 3 mg/kg, po administered as single dose by LC/MS/MS analysis. On the set-up: dose 3 mg/kg, route oral. The note with it: in vivo. The format is ADME, organism-based.
The nature of data set [9]: Half life in Sprague-Dawley rat at 3 mg/kg, po administered as single dose by LC/MS/MS analysis. The class given is ADME, organism-based. Also on record: dose 3 mg/kg, route oral. The note with it: in vivo.
Data set [10] is described as follows: AUC in Sprague-Dawley rat at 3 mg/kg, po administered as single dose by LC/MS/MS analysis. The format is ADME, organism-based, Plasma. On the set-up: dose 3 mg/kg, route oral. The note with it: Sprague-Dawley, plasma.
A short description of data set [11]: Oral bioavailability in Sprague-Dawley rat at 3 mg/kg administered as single dose by LC/MS/MS analysis. The format is ADME, organism-based. The note with it: Sprague-Dawley, in vivo.
The nature of data set [12]: Ratio of drug level in brain to plasma in Sprague-Dawley rat at 3 mg/kg, po administered as single dose. The class given is ADME, organism-based. On the set-up: dose 3 mg/kg, route oral. The note with it: read-out: BPR.
The subject of data set [13] is Plasma. Briefly: Drug level in Sprague-Dawley rat plasma at 3 mg/kg, po administered as single dose by LC/MS/MS analysis. The class given is ADME, organism-based. On the set-up: dose 3 mg/kg, route oral. The note with it: in vivo.
Data set [14] relates to Rattus norvegicus. The experiment in a line: Effect on serotonin release in Sprague-Dawley rat cortex at 10 mg/kg, po after 40 mins microdialysis assay. Also on record: dose 10 mg/kg. The format is functional, organism-based.
Data set [15] relates to Rattus norvegicus. The experiment in a line: Inhibition of 8-OH-DPAT-induced decrease in extracellular serotonin level Sprague-Dawley rat cortex at 10 mg/kg, po administered 30 mins before 8-OH-DPAT challenge. The class given is functional, organism-based. On the set-up: dose 10 mg/kg.

Calls of active or inactive are those of the source. No cut-off for these calls is given here. Where only a bound is given, the exact number is not on record here.

On to `COc1cc(N2CCN(C3CCN(c4cccc5cc(F)cnc45)CC3)CC2)c2ncccc2c1`, for which half-maximal inhibition in data set [1] (IC50) required 5.6 nM. Besides, the half-life at 20 min, 1 µM in [2] and in data set [3] was 2 min each time. Further, the Ki (as a rule, a measure of affinity in units of concentration, obtained from inhibition or displacement) in data set [4] came out at 0.79 nM.
Turning to `COc1cc(N2CCN(C3CCN(c4cccc5cccnc45)CC3)CC2)c2ncccc2c1`, the clearance (commonly the volume of plasma or blood freed of the substance per unit of time) in [5] turned out to be 38.7 mL/min/kg. In addition, the Vd in data set [6] was 2.8 L/kg. Also, the Cmax (in general, the maximum level reached in the sampled fluid or tissue) in data set [7] was 130 ng/mL. For the same molecule, in data set [8], the time to peak (Tmax) – broadly, the time from dosing to the highest level – was 60 min. For the same molecule, the half-life – broadly, the time in which the quantity being followed falls by half – in data set [9] is 72 min. The area under the curve (AUC) (usually the area under the concentration-time curve, a measure of exposure) in data set [10] was 360 ng·h/mL. In data set [11], the bioavailability (in general, the share of a dose that reaches the circulation, judged against a reference dose that is usually intravenous) was 27%. In addition, the Kp in [12] was found to be 2.8. Further, in data set [13], the concentration is 200 nM. In addition, the results for the half-life at 20 min, 1 µM in data set [2] and in data set [3] were 2 min and 3 min, respectively.
Consider `COc1cc(N2CCN(C3CCN(c4cccc5ccc(C)nc45)CC3)CC2)c2ncccc2c1`, for which the half-inhibitory concentration (IC50) (in general, the midpoint of a concentration-inhibition curve) in data set [1] worked out at 47 nM. Moreover, the half-life at 20 min, 1 µM in data set [2] was under 1 min; in [3], 3 min. This molecule gave an inhibitory constant (Ki) in data set [4] of 0.54 nM.
For `COc1cc(N2CCN(C3CCN(c4cc(F)cc5cccnc45)CC3)CC2)c2ncccc2c1` the same measures were 46.5 nM, 2 min, 4 min and 3.4 nM.
For `COc1cc(N2CCN(C3CCN(c4cccc5c(C)cc(C)nc45)CC3)CC2)c2ncccc2c1`, in that order: 4.8 nM, 4 min, under 1 min and 0.63 nM.
For `COc1cc(N2CCN(C3CCN(c4cccc5c(C)ccnc45)CC3)CC2)c2ncccc2c1` the same measures were 1.4 nM, 2 min, 2 min and 0.61 nM.
In the case of `COc1cc(N2CCN(C3CCN(c4cccc5cc(C)cnc45)CC3)CC2)c2ncccc2c1`, the IC50 in data set [1] was determined as 5.9 nM. For the same molecule, the half-life at 20 min, 1 µM in data set [2] and in [3] was 2 min in each case. Affinity in [4] was put at a Ki of 0.46 nM.
`COc1cc(N2CCN(C3CCN(c4cccc5ccc(C(F)(F)F)nc45)CC3)CC2)c2ncccc2c1` gave a concentration for half-maximal inhibition (IC50) in data set [1] of 23 nM. Further, the half-life at 20 min, 1 µM in data set [2] came to 2 min; in data set [3], 3 min. For the same molecule, the inhibitory constant (Ki) in data set [4] was found to be 1.8 nM.
For `COc1cc(N2CCN(C3CCN(c4ccc(F)c5ccc(C(F)(F)F)nc45)CC3)CC2)c2ncccc2c1`, in that order: 7 nM, 3 min, 3 min and 3.6 nM.
For `COc1cc(N2CCN(C3CCN(c4cc(Br)cc5cccnc45)CC3)CC2)c2ncccc2c1`, in that order: 10 nM, 2 min, 2 min and 0.61 nM.
For the molecule `COc1cc(N2CCN(C3CCN(c4cccc5cc(C(F)(F)F)cnc45)CC3)CC2)c2ncccc2c1`, half-maximal inhibition in data set [1] (IC50) required 30 nM. Moreover, the half-life at 20 min, 1 µM in [2] was determined as 4 min; in data set [3], 10 min.
For `COc1cc(N2CCN(C3CCN(c4ccc(F)c5c(OC)cc(C(F)(F)F)nc45)CC3)CC2)c2ncccc2c1`, the clearance in [5] amounted to 9 mL/min/kg. For the same molecule, the Vd in data set [6] was found to be 2.5 L/kg. The same molecule registered a Cmax in [7] of 417 ng/mL. Further, the Tmax in data set [8] is 120 min. This molecule also had a half-life in [9] of 288 min. Also, the AUC in data set [10] came to 3760 ng·h/mL. The same molecule yielded a bioavailability in data set [11] of 60%. Also, in data set [12], the Kp was 0.2. Also, the result in data set [14] was inactive. Also, in [15], the outcome was Active. Also, the half-life at 20 min, 1 µM is 12 min in data set [2] and 15 min in data set [3].
The molecule `COc1cc(N2CCN(C3CCN(c4ccc(F)c5c(C)cc(C)nc45)CC3)CC2)c2ncccc2c1` came in with a half-inhibitory concentration (IC50) in [1] of 2.8 nM. The half-life at 20 min, 1 µM in data set [2] and in [3] was 3 min each time. In addition, in [4], the Ki was found to be 177 nM.
The molecule `COc1cc(N2CCN(C3CCN(c4ccc(F)c5cc(C(F)(F)F)cnc45)CC3)CC2)c2ncccc2c1` showed an IC50 in data set [1] of 15 nM. Besides, the half-life at 20 min, 1 µM in data set [2] amounted to 9 min; in [3] it was 27 min. For the same molecule, in [4], the inhibition constant Ki came out at 0.87 nM.
For `COc1cc(N2CCN(C3CCN(c4cccc5c(OC)cc(C(F)(F)F)nc45)CC3)CC2)c2ncccc2c1`, in that order: 30 nM, 4 min, 13 min and 2.1 nM.
For `COc1cc(N2CCN(C3CCN(c4c(F)ccc5cccnc45)CC3)CC2)c2ncccc2c1`, in that order: 331 nM, 3 min, 3 min and 276 nM.
For `COc1cc(N2CCN(C3CCN(c4ccc(F)c5cc(F)cnc45)CC3)CC2)c2ncccc2c1`, in that order: 20 nM, under 1 min, 5 min and 0.47 nM.

The values are drawn from ChEMBL document CHEMBL1157827, “The synthesis and biological evaluation of quinolyl-piperazinyl piperidines as potent serotonin 5-HT1A antagonists” (J Med Chem, 2010).
